Data: patent publication US20230096766A1, “AMINO ACID HAVING FUNCTIONAL GROUP CAPABLE OF INTERMOLECULAR HYDROGEN BONDING, PEPTIDE COMPOUND CONTAINING SAME AND METHOD FOR PRODUCTION THEREOF” (Chugai Seiyaku Kabushiki Kaisha, priority 2018, published 2023)
*1 amine or outer side, *2 acyl side, *3 side chain or, on linkers, in order; H or OH if unused. Where a SMILES comes first, the peptide text is derived from it. Bridges are numbered along the chain shown (N, C = ends). [ ]: non-standard residue; d: D form. The star is where a group is joined. ξ: configuration not given here. NMeAbu(3,3-F2-piperidino) = CN[C@@H](CCN1CCCC(F)(F)C1)C(=O)O; Phe(3-OMe,4-CONHMe) = CNC(=O)c1ccc(C[C@H](N)C(=O)O)cc1OC; X1 = COc1cc(C[C@H](N[*:1])C(=O)[*:2])ccc1C(=O)NO; NMePhe(3-Cl) = CN[C@@H](Cc1cccc(Cl)c1)C(=O)O; Tyr(3-F) = N[C@@H](Cc1ccc(O)c(F)c1)C(=O)O; X9 = O=C([C@@H](CN[*:1])COCCO)[*:2]; Hyp = O=C(O)[C@@H]1C[C@@H](O)CN1; NMeF = CN[C@@H](Cc1ccccc1)C(=O)O; NMeGABA = CN(CCCC(=O)[*:2])[*:1]; NMeL = CN[C@@H](CC(C)C)C(=O)O; Thr(3ξ) = CC(O)[C@H](N)C(=O)O; NMeV = CN[C@H](C(=O)O)C(C)C; NMeAbu = CC[C@H](NC)C(=O)O; NMeA = CN[C@@H](C)C(=O)O; Piperidide = C1CCN(*)CC1; X8 = C1COC[C@@H](C*)N1; NBuGly = CCCCNCC(=O)O; Ethyl(2-OH) = OCC*; Sar = CNCC(=O)O; tBu = CC(C)(C)*

Assay: in vitro
Conditions: human, Caco-2, Caco-2

Row | Compound | Papp
1 | CC(C)C[C@@H]1NC(=O)[C@H](Cc2ccccc2)N(C)C(=O)[C@H](Cc2ccccc2)N(C)C(=O)[C@H](CC(C)C)NC(=O)[C@H](CC(C)C)N(C)C(=O)CCCN(C)C(=O)C[C@@H](C(=O)N2CCCCC2)NC(=O)[C@H](C)N(C)C(=O)[C@H](CCN2CCCC(F)(F)C2)N(C)C(=O)[C@H]([C@@H](C)O)NC(=O)[C@H](CC(C)C)N(C)C1=O [pd390] ([NMeGABA][NMeL]L[NMeF][NMeF]L[NMeL]T[NMeAbu(3,3-F2-piperidino)][NMeA]D-Piperidide; lactam N-11) | 2 ×10⁻⁶ cm/s

Same assay, conditions: human, Caco-2, Caco-2 (cm/sec)

Row | Compound | Papp
2 | CC(C)C[C@@H]1NC(=O)[C@H](CC(C)C)N(C)C(=O)[C@H](CC(C)C)N(C)C(=O)[C@H](COC(C)(C)C)NC(=O)[C@H](CC(C)C)N(C)C(=O)[C@@H](C(C)C)NC(=O)C[C@@H](C(=O)N2CCCCC2)NC(=O)[C@H](CC(C)C)N(C)C(=O)[C@H](Cc2ccccc2)NC(=O)[C@@H]2C[C@@H](OCCO)CN2C(=O)[C@H]([C@@H](C)O)NC1=O [AP237] ([dV][NMeL]S(tBu)[NMeL][NMeL]LT[Hyp](Ethyl(2-OH))F[NMeL]D-Piperidide; lactam N-11) | 1.3 ×10⁻⁶ cm/s
3 | CCCCN1CC(=O)N(C)[C@@H](CC(C)C)C(=O)N[C@@H](COC[C@@H]2COCCN2)C(=O)N(C)[C@@H](CC(C)C)C(=O)N(C)[C@@H](CC(C)C)C(=O)N[C@H](C(=O)N2CCCCC2)CC(=O)N[C@H](C(C)C)C(=O)N(C)[C@@H](Cc2ccccc2)C(=O)N[C@@H](CC(C)C)C(=O)N(C)[C@@H](CC)C(=O)N[C@@H]([C@@H](C)O)C1=O [AP239] ([dV][NMeF]L[NMeAbu]T[NBuGly][NMeL]S(X8)[NMeL][NMeL]D-Piperidide; lactam N-11) | 0.18 ×10⁻⁶ cm/s
4 | CCCCN1CC(=O)N(C)[C@@H](CC(C)C)C(=O)N(C)[C@@H](CC(C)C)C(=O)N[C@@H](COC(C)(C)C)C(=O)N(C)[C@@H](CC(C)C)C(=O)N[C@H](C(=O)N2CCCCC2)CC(=O)N(C)CC(=O)N(C)[C@@H](Cc2cccc(Cl)c2)C(=O)N[C@@H](Cc2ccc(C(=O)NO)c(OC)c2)C(=O)N(C)[C@@H](CC(C)C)C(=O)N[C@@H]([C@@H](C)O)C1=O [AP260] ([Sar][NMePhe(3-Cl)][X1][NMeL]T[NBuGly][NMeL][NMeL]S(tBu)[NMeL]D-Piperidide; lactam N-11) | 0.04 ×10⁻⁶ cm/s
5 | CC[C@H](C)[C@@H]1NC(=O)[C@H](CC(C)C)N(C)C(=O)[C@@H](C)NC(=O)C[C@@H](C(=O)N2CCCCC2)NC(=O)[C@H](C)N(C)C(=O)[C@H](Cc2ccccc2)N(C)C(=O)[C@H](COC(C)(C)C)NC(=O)[C@H](CC(C)C)N(C)C(=O)CN(C)C(=O)[C@H](Cc2ccc(O)c(F)c2)NC(=O)[C@H](CC(C)C)N(C)C1=O [pd124] ([dA][NMeL]I[NMeL][Tyr(3-F)][Sar][NMeL]S(tBu)[NMeF][NMeA]D-Piperidide; lactam N-11) | 0.32 ×10⁻⁶ cm/s
6 | CC(C)C[C@@H]1NC(=O)[C@H](CC(C)C)N(C)C(=O)[C@H](C)N(C)C(=O)[C@@H](C(C)C)NC(=O)C[C@@H](C(=O)N2CCCCC2)NC(=O)[C@H]([C@@H](C)O)NC(=O)[C@H](C)N(C)C(=O)[C@H](C)N(C)C(=O)[C@H](CC(C)C)N(C)C(=O)[C@H](Cc2ccc(O)c(F)c2)NC(=O)[C@H](Cc2ccccc2)N(C)C1=O [pd113] ([dV][NMeA][NMeL]L[NMeF][Tyr(3-F)][NMeL][NMeA][NMeA]TD-Piperidide; lactam N-11) | 0.029 ×10⁻⁶ cm/s
7 | CC(C)C[C@@H]1NC(=O)[C@H](CC(C)C)N(C)C(=O)[C@H](Cc2cccc(Cl)c2)N(C)C(=O)[C@H](COCCO)CNC(=O)[C@H](CC(C)C)N(C)C(=O)CCCN(C)C(=O)C[C@@H](C(=O)N2CCCCC2)NC(=O)[C@H](CC(C)C)N(C)C(=O)[C@H](CC(C)C)N(C)C(=O)[C@H]([C@@H](C)O)NC(=O)[C@H](CC(C)C)N(C)C1=O [AP129] ([NMeGABA][NMeL][X9][NMePhe(3-Cl)][NMeL]L[NMeL]T[NMeL][NMeL]D-Piperidide; lactam N-11) | 0.46 ×10⁻⁶ cm/s
8 | CC(C)C[C@H]1C(=O)N[C@H](C(=O)N(C)[C@@H](Cc2ccccc2)C(=O)N[C@@H](C)C(=O)N2CCCCC2)CC(=O)N(C)[C@@H](C)C(=O)N[C@@H]([C@@H](C)O)C(=O)N(C)[C@@H](C)C(=O)N(C)[C@@H](CC(C)C)C(=O)N[C@@H](C(C)C)C(=O)N(C)[C@@H](Cc2ccccc2)C(=O)N[C@@H](Cc2ccccc2)C(=O)N1C [pd212] ([NMeA]T[NMeA][NMeL]V[NMeF]F[NMeL]D[NMeF]A-Piperidide; lactam N-9) | 1.4 ×10⁻⁶ cm/s
9 | CNC(=O)c1ccc(C[C@@H]2NC(=O)[C@H](CC(C)C)N(C)C(=O)[C@H](CC(C)C)N(C)C(=O)[C@H](CC(C)C)NC(=O)[C@H](CC(C)C)N(C)C(=O)C[C@@H](C(=O)N3CCCCC3)NC(=O)[C@H](CC(C)C)N(C)C(=O)CN(C)C(=O)[C@H](C(C)O)NC(=O)[C@H](C(C)C)N(C)C(=O)[C@H](CC(C)C)N(C)C2=O)cc1OC (stereo partly drawn) [AP32] ([NMeL]L[NMeL][NMeL][Phe(3-OMe,4-CONHMe)][NMeL][NMeV][Thr(3ξ)][Sar][NMeL]D-Piperidide; lactam N-11) | 1.3 ×10⁻⁶ cm/s
